According to the NIST ThermoML archive (doi:10.1016/j.jct.2019.01.007):

Details: Liquid

CCCCCCCCCCCCCC(=O)OC [methyl tetradecanoate]
Details | vapor or sublimation pressure [kPa]
302.71 K | 0.0001132
305.3 K | 0.0001501
306.14 K | 0.0001656
307.76 K | 0.0001949
308.58 K | 0.0002142
310.23 K | 0.0002542
311.21 K | 0.0002813
312.71 K | 0.0003264
313.7 K | 0.0003625
315.17 K | 0.0004199
316.16 K | 0.0004655
317.65 K | 0.0005357
318.63 K | 0.0005914
320.12 K | 0.0006862
321.26 K | 0.0007623
322.58 K | 0.0008688
323.72 K | 0.0009621
325.2 K | 0.001105
326.19 K | 0.001216
327.67 K | 0.001391
328.66 K | 0.001519
330.13 K | 0.001743
331.13 K | 0.001907
332.6 K | 0.002171
333.6 K | 0.002378
335.34 K | 0.002751
336.07 K | 0.002936
337.83 K | 0.00341
338.55 K | 0.003626
340.31 K | 0.004207
341.01 K | 0.00447
342.8 K | 0.005171
343.48 K | 0.005466
345.28 K | 0.006333
345.96 K | 0.006695
347.76 K | 0.007722
348.43 K | 0.008134
350.25 K | 0.009383
350.91 K | 0.009867
352.73 K | 0.01136
355.48 K | 0.01397
357.96 K | 0.0168
360.44 K | 0.02019
362.92 K | 0.02417
365.4 K | 0.02884
367.85 K | 0.0341
370.34 K | 0.0405
372.83 K | 0.04791
375.44 K | 0.05668
377.92 K | 0.06667
380.41 K | 0.0782
382.89 K | 0.09144
385.37 K | 0.1068
387.86 K | 0.1243
390.36 K | 0.1443
393.01 K | 0.1685
395.5 K | 0.1947
397.98 K | 0.2245
400.45 K | 0.2582
402.96 K | 0.297
405.45 K | 0.3402
407.93 K | 0.3881
410.41 K | 0.4428
412.89 K | 0.5045
415.45 K | 0.5764
417.93 K | 0.6527
420.4 K | 0.7365
422.88 K | 0.8323

Transpiration method
Details | vapor or sublimation pressure [kPa]
303.05 K | 0.000126
304.65 K | 0.000152
306.05 K | 0.000172
309.15 K | 0.000236
311.15 K | 0.00032
313.15 K | 0.00039
316.25 K | 0.000485
319.25 K | 0.000631
322.05 K | 0.000891
325.05 K | 0.00116
328.25 K | 0.00151
331.05 K | 0.0019
333.05 K | 0.00252
333.15 K | 0.00233
334.95 K | 0.00275
338.05 K | 0.00359
340.05 K | 0.00416
343.05 K | 0.00536
344.95 K | 0.00629
348.05 K | 0.00758
350.15 K | 0.00963
353.05 K | 0.0111
355.15 K | 0.0133
358.05 K | 0.0168
360.05 K | 0.02
363.05 K | 0.0242

CCCCCCCCCCCCC(=O)OC [methyl tridecanoate]
Transpiration method
Details | vapor or sublimation pressure [kPa]
298.15 K | 0.000239
300.15 K | 0.000302
303.25 K | 0.00041
305.15 K | 0.000485
308.15 K | 0.000697
310.15 K | 0.000799
313.35 K | 0.00112
315.05 K | 0.0013
318.25 K | 0.00174
320.15 K | 0.00203
323.25 K | 0.00258
325.05 K | 0.00314
328.15 K | 0.00415
330.15 K | 0.00492
333.15 K | 0.00626
335.15 K | 0.00739
338.15 K | 0.00934
340.15 K | 0.0111
343.05 K | 0.0131
345.15 K | 0.0163
348.15 K | 0.0197
350.15 K | 0.023
353.15 K | 0.0286
355.15 K | 0.0338

CCCCCCCCCCC(=O)OC [methyl undecanoate]
Details | vapor or sublimation pressure [kPa]
305.25 K | 0.003577
307.81 K | 0.004504
310.15 K | 0.005571
312.67 K | 0.006957
315.06 K | 0.008553
317.52 K | 0.01055
319.94 K | 0.01283
322.42 K | 0.01574
324.82 K | 0.019
327.29 K | 0.02304
329.69 K | 0.02778
332.16 K | 0.03345
334.54 K | 0.03987
337.03 K | 0.04783
339.43 K | 0.05689
341.91 K | 0.06735
